# According to patent publication US7125847B1, “Mechanically activated channel blocker” (priority 2000, dated 2006):
# Entries after “also recorded” stand apart in the source; their conditions may differ.
# Assays:
# [1] = system: perfused rabbit hearts; test: Stretch-induced atrial fibrillation in perfused rabbit hearts
# Source text: To illustrate this embodiment, fibrillation was initiated in perfused rabbit hearts with a burst of high-frequency stimulation FIG. 10A. Stretching the atrium chamber increased the incidence and duration of fibrillation (FIG. 10A–C). At pressures above 12 cm H2O, the fibrillation became sustained and the probability of sustained fibrillation (for, longer than 60 s) approached unity. The probability of inducing fibrillation was increased by stimulating the heart with a short burst of high-frequency pacing before each measurement (arrow in FIG. 10b). Perfusion with 170 nM GsMtx-4 suppressed both the incidence (FIG. 10c) and duration (FIG. 10d) of fibrillation in all hearts (n=10).
# [2] = system: ventricular myocytes; test: Myocyte volume by video microscopy in CHF rabbit ventricular myocytes; format: cell-based; settings: 0.4 μM
# Description: Myocyte volume was determined by visualization with an inverted Nikon Diaphot microscope equipped with Hoffman modulation optics and a high resolution TV camera coupled to a video frame-grabber. Images were captured on-line each time a ramp or step voltage clamp protocol was performed using a program written in C and assembler and linked to ASYST voltage-clamp software. A combination of commercial (MOCHA; SPSS) and custom (ASYST) programs were used to determine cell width, length, and area of the image. GsMTx-4 produced a cell volume reduction that is ˜40% of that produced by 1.5 T […] saline.
# [3] = system: whole-cell swelling-activated currents in adult rat astrocytes; test: Whole-cell (Nystatin perforated patch) currents in adult rat astrocytes, isotonic and hypotonic swelling; format: cell-based; settings: for estimated reduction in swelling-activated current: relative to mean before and after controls
# Description: It is considered that part of the swelling activated currents are attributable to SACs. To illustrate this embodiment, adult rat astrocytes were cultured as described above. Whole cell current was measured by the Nystatin perforated patch. Bath saline was the same as in Example 2. Pipette saline consisted of: KCl 80 mM, K2SO4 30 mM, NaCl 10 mM, MgSO4 3 mM, CaCl20.13 mM, EGTA 0.23 mM and Hepes 10 mM, pH 7.3. Nystatin was dissolved in pipette saline to a final concentration of […]. After patch formation, access resistance was allowed to drop to ˜15 MW (uncompensated), after which the series resistance compensation was set at ˜65%, and prediction was set to ˜75%. Whole cell capacitance measurements ranged from ˜25–50 pF. Whole cell currents were monitored by either a voltage step protocol shown in FIG. 7, or by 600 ms voltage ramps. During hypotonic swelling the cell was perfused initially with isotonic saline (bath saline with 160 mM mannitol replacing 80 mM NaCl) before switching to hypotonic saline (isotonic saline minus 140 mM mannitol). The BPS-8 perfusion system was used to rapidly (<200 ms) change the bathing solution. Peak currents were measured at 3–5 ms into voltage steps.
sequence,measurement,setting,value
GCLEFWWKCNPNDDKCCRPKLKCSKLFKLCNFSFGK [GsMTx-4],duration of fibrillation,[1]; 170 nM perfusion,decreased the average time to spontaneous recovery from AF; also recorded: suppressed
same,incidence of fibrillation,"[1]; 170 nM perfusion, n=10 hearts",suppressed
same,stretch-induced shortening of the refractory period,"[1]; 170 nM, n=10",did not block
same,sustained fibrillation,"[1]; 170 nM, pressures below 17.5 cm H2O",completely inhibited
same,cell volume reduction relative to that produced by 1.5 T saline,[2],~40%
same,change in reversal potential of swelling-activated current,[3]; 5 μM GsMTx-4,+2 mV
same,effect on whole-cell currents in isotonic saline,"[3]; 5 μM GsMTx-4, 30 to 120 s after perfusion",no significant difference
same,reduction of peak swelling-activated current response,"[3]; 5 μM, 30 seconds after hypotonic exposure",about 75%
same,estimated reduction in swelling-activated current,"[3]; 5 μM, at +100 mV",~38%
same,estimated reduction in swelling-activated current,"[3]; 5 μM, at −100 mV",~48%
